A short description of assay [1]: Cytotoxicity against human P15 cells after 48 hrs by MTT assay. Format: functional, cell-based. The note with it: P15, 48 h.
Assay [2] can be described thus: Cytotoxicity against human MGC803 cells after 48 hrs by MTT assay. The note with it: MGC-803, 48 h. Format: functional, cell-based.
A further assay has as its system SW1990. Briefly: Cytotoxicity against human SW1990 cells after 48 hrs by MTT assay. Format: functional, cell-based. The note with it: SW1990, 48 h.
Assay [3] in a line: Cytotoxicity against human LO2 cells after 48 hrs by MTT assay. The note with it: L02, 48 h. Format: cell-based.
The next assay deals with MGC-803. Kind of assay: Induction of apoptosis in human MGC803 cells after 24 hrs by annexin V-FITC/propidium iodide staining-based flow cytometry. Format: functional, cell-based.

The text below walks through data of ChEMBL document CHEMBL3792337, “Cardiac Glycosides from the Seeds of Thevetia peruviana” (J Nat Prod, 2016).

Regarding `CO[C@H]1[C@H](O)[C@H](O[C@H]2CC[C@@]3(C)[C@H](CC[C@@H]4[C@@H]3CC[C@]3(C)[C@@H](C5=CC(=O)OC5)CC[C@]43O)C2)O[C@@H](C)[C@@H]1O` [NERIIFOLIN], the IC50 in assay [1] is 0.06 µM; in assay [2] it was 0.02 µM; in the assay on SW1990, 0.03 µM; in assay [3], more than 10 µM. Further, the Activity entry in the assay with MGC-803 was “Dose-dependent effect”.

For the molecule `CO[C@H]1[C@H](O)[C@H](O[C@H]2CC[C@@]3(C)[C@@H](CC[C@@H]4[C@@H]3CC[C@]3(C)[C@@H](C5=CC(=O)OC5)CC[C@]43O)C2)O[C@@H](C)[C@@H]1O` [THEVEFOLIN], the IC50 in assay [1] is 0.01 µM; in assay [2], 0.37 µM; in the assay on SW1990 it was 0.03 µM; in assay [3], more than 10 µM. Further, the Activity result in the assay with MGC-803 is “Dose-dependent effect”.

`CO[C@H]1[C@H](O)[C@H](O[C@H]2CC[C@H]3[C@H](CC[C@@H]4[C@@H]3CC[C@]3(C)[C@@H](C5=CC(=O)OC5)CC[C@]43O)C2)O[C@@H](C)[C@@H]1O`: the concentration for half-maximal inhibition (IC50) in assay [1] was 0.21 µM; in assay [2], 0.57 µM; with SW1990, 0.53 µM; in assay [3], more than 10 µM. In the assay on MGC-803, the Activity entry was “Dose-dependent effect”.

Regarding `CO[C@H]1[C@H](O)[C@H](O[C@H]2CC[C@@]3(CO)[C@H](CC[C@@H]4[C@@H]3CC[C@]3(C)[C@@H](C5=CC(=O)OC5)CC[C@]43O)C2)O[C@@H](C)[C@@H]1O`, the IC50 is 0.08 µM in assay [1], 0.04 µM in assay [2], 0.02 µM with SW1990 and more than 10 µM in assay [3]. For the same molecule, the Activity entry with MGC-803 is “Dose-dependent effect”.

For the molecule `CO[C@H]1[C@H](O)[C@H](O[C@H]2CC[C@@]3(C(=O)O)[C@H](CC[C@@H]4[C@@H]3CC[C@]3(C)[C@@H](C5=CC(=O)OC5)CC[C@]43O)C2)O[C@@H](C)[C@@H]1O`, the half-inhibitory concentration (IC50) in assay [1] was more than 10 µM; in assay [2], 3.93 µM; in the assay on SW1990, more than 10 µM; in assay [3], more than 10 µM.

As for `CO[C@H]1[C@@H](O)[C@H](O[C@H]2CC[C@@]3(C)[C@@H](CC[C@@H]4[C@@H]3CC[C@]3(C)[C@@H](C5=CC(=O)OC5)CC[C@]43O)C2)O[C@@H](C)[C@@H]1O[C@H]1O[C@@H](CO[C@@H]2O[C@H](CO)[C@@H](O)[C@H](O)[C@H]2O)[C@H](O)[C@@H](O)[C@@H]1O`, the IC50 in assay [1] was 10 µM; in assay [2] it was 6.56 µM; in the assay on SW1990 it was more than 10 µM; in assay [3], more than 10 µM.

In the case of `CO[C@H]1[C@H](OC(C)=O)[C@H](O[C@H]2CC[C@@]3(C)[C@@H](CC[C@@H]4[C@@H]3CC[C@]3(C)[C@@H](C5=CC(=O)OC5)CC[C@]43O)C2)O[C@@H](C)[C@@H]1O[C@H]1O[C@@H](CO[C@@H]2O[C@H](CO)[C@@H](O)[C@H](O)[C@H]2O)[C@H](O)[C@@H](O)[C@@H]1O`, the 50% inhibitory concentration (IC50) is more than 10 µM in assay [1], 10 µM in assay [2], more than 10 µM in the assay on SW1990 and more than 10 µM in assay [3].

`CO[C@H]1[C@H](O)[C@H](O[C@H]2CC[C@@]3(O)[C@H](CC[C@@H]4[C@@H]3CC[C@]3(C)[C@@H](C5=CC(=O)OC5)CC[C@]43O)C2)O[C@@H](C)[C@@H]1O[C@@H]1O[C@H](CO[C@@H]2O[C@H](CO)[C@@H](O)[C@H](O)[C@H]2O)[C@@H](O)[C@H](O)[C@H]1O`: the IC50 (in assay [1]; in assay [2]; with SW1990; in assay [3]) was more than 10 µM in each case.

Consider `CO[C@@H]1[C@@H](O)[C@@H](O[C@@H]2CC[C@]3(CO)[C@@H](CC[C@H]4[C@H]3CC[C@@]3(C)[C@H](C5=CC(=O)OC5)CC[C@@]43O)C2)O[C@H](C)[C@H]1O[C@@H]1O[C@H](CO[C@H]2O[C@@H](CO)[C@H](O)[C@@H](O)[C@@H]2O)[C@@H](O)[C@H](O)[C@H]1O`, for which the IC50 is 10 µM in assay [1], 9.52 µM in assay [2], 7.7 µM in the assay with SW1990 and more than 10 µM in assay [3].
